Where two headings read alike, the source gives them in different places.
What was measured:
Tyrosinase [1] = biological target: T1, Tyrosinase (Agaricus bisporus, UniProt C7FF04); test: Tyrosinase assay (inhibitory activity, L-tyrosine substrate, product detected at 475 nm); format: biochemical; set-up: purchased Sigma–Aldrich T3824; details: for Inhibitory Ratio at 50 μM: 50 μM compound
Description: (§1) To assess the inhibitory effect of compounds on tyrosinase, 130 μL tyrosinase in 0.05 mM phosphate buffer (pH 6.8) was aliquoted into 96-well plates, and 20 μL of each compound at concentrations ranging from 0.5 to 0.0075 mM was added. Next, 50 μL 1.2 mM L-tyrosine in phosphate buffer was diluted to calculate the inhibitory activity. Finally, 50 μL 10–0.62 mM l-tyrosine in buffer was added to analyze the initial velocity (v0). Twenty minutes after starting the reaction, the amount of product was detected at 475 nm. The inhibitory activity was calculated using the following equation: Inhibitory activity rate (%) = [(ΔC − ΔS)/ΔC] × 100, where C and S are the intensity of control and inhibitor after 20 min, respectively.
Target sequence in this assay (C7FF04 1-392 limits assumed): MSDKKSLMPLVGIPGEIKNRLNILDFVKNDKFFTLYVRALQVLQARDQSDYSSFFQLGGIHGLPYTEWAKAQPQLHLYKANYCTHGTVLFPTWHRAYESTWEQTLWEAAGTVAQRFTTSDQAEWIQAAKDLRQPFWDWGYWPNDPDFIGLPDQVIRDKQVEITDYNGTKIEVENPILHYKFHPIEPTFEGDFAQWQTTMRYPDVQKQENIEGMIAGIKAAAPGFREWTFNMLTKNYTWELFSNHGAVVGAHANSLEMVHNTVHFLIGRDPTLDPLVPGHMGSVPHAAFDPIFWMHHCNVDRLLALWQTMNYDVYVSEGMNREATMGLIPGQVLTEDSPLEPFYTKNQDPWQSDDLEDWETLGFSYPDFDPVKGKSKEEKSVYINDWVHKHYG

Tyrosinase [2] = biological target: T1, Tyrosinase; test: Enzyme kinetics on tyrosinase (Lineweaver–Burk and Dixon plots); format: biochemical; details: various substrate concentrations
Description: The v0 was calculated at ~10% of the substrate conversion rate by tyrosinase. The results are shown as Lineweaver–Burk plots (Figure 2A–C and Table 1).
as §1
Target sequence in this assay (C7FF04 2-392): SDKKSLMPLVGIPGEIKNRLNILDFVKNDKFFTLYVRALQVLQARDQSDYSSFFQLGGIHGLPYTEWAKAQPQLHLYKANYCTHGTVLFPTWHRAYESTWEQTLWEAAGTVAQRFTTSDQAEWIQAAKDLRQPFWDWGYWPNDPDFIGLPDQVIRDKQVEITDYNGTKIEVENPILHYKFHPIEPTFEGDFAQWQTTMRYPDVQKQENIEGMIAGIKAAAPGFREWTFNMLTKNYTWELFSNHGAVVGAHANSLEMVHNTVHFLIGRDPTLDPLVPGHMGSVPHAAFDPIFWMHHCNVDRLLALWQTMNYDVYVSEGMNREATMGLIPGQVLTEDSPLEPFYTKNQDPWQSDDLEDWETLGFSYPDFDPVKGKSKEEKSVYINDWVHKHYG

[3] = Mean ± SEM, tested three times, read-out: IC50

## Oc1cc(O)c2ccc(-c3ccc(O)c(O)c3)[o+]c2c1 [Compound 1, luteolinidin]
Tyrosinase [1]
  IC50: 3.7 ± 0.8 µM
  Inhibitory activity on tyrosinase (in words): most potent inhibitors
Tyrosinase [2]
  Binding Mode: Competitive inhibitor

## COc1cc(-c2[o+]c3cc(O)cc(O)c3cc2O[C@@H]2O[C@H](CO)[C@@H](O)[C@H](O)[C@H]2O)cc(O)c1O [Compound 2, petunidin 3-O-glucoside]
Tyrosinase [1]
  Inhibitory activity on tyrosinase (in words): most potent inhibitors
Tyrosinase [1]; tested three times
  Inhibitory Ratio at 50 μM: 69.2 ± 1.0%
Tyrosinase [1]; [3]
  IC50: 10.3 ± 1 µM
Tyrosinase [2]
  Binding Mode: Competitive inhibitor

## OC[C@H]1O[C@@H](Oc2cc3c(O)cc(O)cc3[o+]c2-c2cc(O)c(O)c(O)c2)[C@H](O)[C@@H](O)[C@H]1O [Compound 3, delphinidin 3-O-galactoside]
Tyrosinase [1]
  Inhibitory activity on tyrosinase (in words): moderate inhibitory activity
Tyrosinase [1]; tested three times
  Inhibitory Ratio at 50 μM: 55.2 ± 0.9%
Tyrosinase [1]; [3]
  IC50: 41.3 ± 3.2 µM
Tyrosinase [2]
  Binding Mode: Competitive inhibitor

## OC[C@H]1O[C@@H](Oc2cc3c(O)cc(O)cc3[o+]c2-c2ccc(O)c(O)c2)[C@H](O)[C@@H](O)[C@@H]1O [Compound 4, kuromanin (cyanidin 3-O-glucoside)]
Tyrosinase [1]; tested three times
  Inhibitory Ratio at 50 μM: −1.9 ± 40.0%

## OC[C@H]1O[C@@H](Oc2cc3c(O)cc(O)cc3[o+]c2-c2cc(O)c(O)c(O)c2)[C@H](O)[C@@H](O)[C@@H]1O [Compound 5, delphinidin 3-O-glucoside]
Tyrosinase [1]; tested three times
  Inhibitory Ratio at 50 μM: 47.5 ± 3.2%

## OC[C@H]1O[C@@H](Oc2cc3c(O)cc(O)cc3[o+]c2-c2ccc(O)cc2)[C@H](O)[C@@H](O)[C@@H]1O [Compound 6, callistephin (pelargonidin 3-O-glucoside)]
Tyrosinase [1]; tested three times
  Inhibitory Ratio at 50 μM: 6.5 ± 2.1%
